From patent publication US20090137499A1, “BENZYLPHENYL GLUCOPYRANOSIDE DERIVATIVE” (priority 2006, published 2009)

The compounds below were run against T1, human SGLT1 (Homo sapiens, UniProt P13866) (assay: Determination of SGLT1 inhibiting activity using human SGLT1 expressing cell ([14C]-α-methyl-D-glucopyranoside uptake)). Conditions: HEK-SGLT1 cells, 1 mM [14C]-α-methyl-D-glucopyranoside, 37° C., 30 min.
T1 construct: expressed in transfected cells
T1 sequence (P13866 1-664): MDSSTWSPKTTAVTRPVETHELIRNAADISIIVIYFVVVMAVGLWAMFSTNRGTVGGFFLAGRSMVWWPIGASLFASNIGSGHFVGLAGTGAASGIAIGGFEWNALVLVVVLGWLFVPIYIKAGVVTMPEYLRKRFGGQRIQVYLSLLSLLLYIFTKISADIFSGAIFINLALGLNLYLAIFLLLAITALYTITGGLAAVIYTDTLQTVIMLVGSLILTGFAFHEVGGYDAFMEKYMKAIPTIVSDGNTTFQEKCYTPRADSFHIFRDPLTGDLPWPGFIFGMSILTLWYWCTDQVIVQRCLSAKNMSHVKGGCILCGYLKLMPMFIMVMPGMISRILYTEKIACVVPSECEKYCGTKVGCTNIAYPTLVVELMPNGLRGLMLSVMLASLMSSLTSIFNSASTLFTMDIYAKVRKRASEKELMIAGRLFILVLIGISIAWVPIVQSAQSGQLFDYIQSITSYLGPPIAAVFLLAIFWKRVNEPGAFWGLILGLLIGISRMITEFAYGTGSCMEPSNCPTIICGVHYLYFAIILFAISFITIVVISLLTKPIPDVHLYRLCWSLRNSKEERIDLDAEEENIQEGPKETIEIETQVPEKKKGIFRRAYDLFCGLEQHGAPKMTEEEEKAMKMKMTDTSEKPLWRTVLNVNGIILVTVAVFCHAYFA
Type: cell-based
Protocol: Determination of SGLT1 Inhibiting Activity Using Human SGLT1 Expressing Cell
1) Preparation of Vector Expressing Human SGLT1 cDNA in Animal Cell
Amplification was performed by PCR using human SGLT1 cDNA clone (Origene: Clone Number, TC119918; GenBank accession number, NM 000343) as a template. The sense oligonucleotide primer for PCR was 5′-[…]-3′ (Primer 1: SEQ ID NO: 1 in the sequence listing),
and the antisense oligonucleotide primer was 5′-[…]-3′ (Primer 2: SEQ ID NO: 2 in the sequence listing).
The PCR product was subjected to agarose electrophoresis, then a target DNA fragment was recovered from a single band corresponding to 2013 bases, digested with restriction enzymes HindIII and XhoI, and introduced into the HindIII/XhoI site of vector pCMV-Script (Stratagene) to obtain SGLT1 expressing plasmid pCMV-SGLT1. A HindIII/XhoI fragment was excised from pCMV-SGLT1 and introduced into the BamHI/XhoI site of pENTR1A (Gateway, Invitrogen) to prepare pENTR-SGLT1. Retrovirus vector pLPCX (Clontech) into which Gateway Vector Conversion System Cassette A (Invitrogen) was introduced was used as the destination plasmid to prepare SGLT1 expressing retrovirus vector pLPCX-SGLT1.
2) Establishment of Human SGLT1 Expressing Cell
The retrovirus pLPCX-SGLT1 obtained in 1) was transfected into integrin αvβ3 expressing HEK-293 cells and, the cells were treated with antibiotic G418 (brand name, Geneticin: Invitrogen) and puromycin (Clontech) to obtain HEK-SGLT1 cells stably expressing the target vector having resistance. The stably expressing cells were cultured and maintained in DMEM medium containing […] G418, […] puromycin, 3 mM KGT-1075, and 10% FBS.
3) Determination of SGLT1 Inhibiting Activity
HEK-SGLT1 cells were suspended at a density of 10^6 cells/mL in DMEM medium containing […] G418, 1 mg/ml puromycin, and 10% FBS, and 100 μL was seeded in each well of a type 1 collagen-coated 96-well culture plate (Corning). On the following day, the medium was replaced with a sugar uptake buffer (10 mM HEPES [pH 7.5], 5 mM Tris-HCl [pH 7.5], 140 mM NaCl, 2 mM KCl, 1 mM CaCl2, 1 mM MgCl2), and the cells were cultured with 1 mM [^14C]-α-methyl-D-glucopyranoside (0.1 mCi) and the test compound at 37° C. for 30 min and then washed 3 times with a washing buffer (10 mM HEPES [pH 7.5], 5 mM Tris-HCl [pH 7.5], 140 mM choline chloride, 2 mM KCl, 1 mM CaCl2, 1 mM MgCl2). 100 μL of liquid scintillation cocktail (brand name, Supermix: Perkin-Elmer) was added to each well of the 96-well plate and stirred for 10 min, and then radioactivity was determined with micro β (Perkin-Elmer), a type of liquid scintillation counter. The value as the sugar uptake activity was obtained by deducting the radioactivity in the presence of an excess amount of an SGLT1 inhibiting compound as the background from each measured value, the inhibition rate (%) was calculated from the control sugar uptake activity obtained without using a test compound and the sugar uptake activity obtained using a test compound having a predetermined the concentration, and concentrations of the test compound at which the sugar uptake activity was inhibited by 50% were assessed.

Structure (SMILES)	IC50
COc1ccc(Cc2c(OC)cc(CO)cc2O[C@@H]2O[C@H]([C@@H](C)O)[C@@H](O)[C@H](O)[C@H]2O)cc1 [Example 83, 5-Hydroxymethyl-3-methoxy-2-(4-methoxybenzyl)phenyl 7-deoxy-D-glycero-β-D-gluco-heptopyranoside]	142 nM
COc1ccc(Cc2c(F)cc(CO)cc2O[C@@H]2O[C@H]([C@@H](C)O)[C@@H](O)[C@H](O)[C@H]2O)cc1 [Example 84, 3-Fluoro-5-hydroxymethyl-2-(4-methoxybenzyl)phenyl 7-deoxy-D-glycero-β-D-gluco-heptopyranoside]	31 nM
C[C@@H](O)[C@H]1O[C@@H](Oc2cc(CO)cc(F)c2Cc2ccc(C3CC3)cc2)[C@H](O)[C@@H](O)[C@@H]1O [Example 88, 2-(4-Cyclopropylbenzyl)-3-fluoro-5-hydroxymethylphenyl 7-deoxy-D-glycero-β-D-gluco-heptopyranoside]	51 nM
CCc1ccc(Cc2c(C)cc(CO)cc2O[C@@H]2O[C@H]([C@@H](C)O)[C@@H](O)[C@H](O)[C@H]2O)cc1 [Example 89, 2-(4-Ethylbenzyl)-5-hydroxymethyl-3-methylphenyl 7-deoxy-D-glycero-β-D-gluco-heptopyranoside]	81 nM
CCOc1ccc(Cc2ccc(CO)cc2O[C@@H]2O[C@H]([C@@H](C)O)[C@@H](O)[C@H](O)[C@H]2O)cc1 [Example 93, 2-(4-Ethoxybenzyl)-5-hydroxymethylphenyl 7-deoxy-D-glycero-β-D-gluco-heptapyranoside]	430 nM
COc1ccc(Cc2c(C)cc(CO)cc2O[C@@H]2O[C@H]([C@@H](C)O)[C@@H](O)[C@H](O)[C@H]2O)cc1 [Example 94, 5-Hydroxymethyl-2-(4-methoxybenzyl)-3-methylphenyl 7-deoxy-D-glycero-β-D-gluco-heptopyranoside]	37 nM
C[C@@H](O)[C@H]1O[C@@H](Oc2cc(CO)cc(Cl)c2Cc2ccc(OC3CC3)cc2)[C@H](O)[C@@H](O)[C@@H]1O [Example 95, 3-Chloro-2-(4-cyclopropoxybenzyl)-5-hydroxymethyl-phenyl 7-deoxy-D-glycero-β-D-gluco-heptopyranoside]	82 nM
Cc1cc(CO)cc(O[C@@H]2O[C@H]([C@@H](C)O)[C@@H](O)[C@H](O)[C@H]2O)c1Cc1ccc(OC2CC2)cc1 [Example 96, 2-(4-Cyclopropoxybenzyl)-5-hydroxymethyl-3-methyl-phenyl 7-deoxy-D-glycero-β-D-gluco-heptopyranoside]	77 nM
Cc1ccc(Cc2c(F)cc(CO)cc2O[C@@H]2O[C@H]([C@@H](C)O)[C@@H](O)[C@H](O)[C@H]2O)cc1 [Example 97, 3-Fluoro-5-hydroxymethyl-2-(4-methylbenzyl)phenyl 7-deoxy-D-glycero-β-D-gluco-heptopyranoside]	52 nM
Cc1ccc(Cc2ccc(CO)cc2O[C@@H]2O[C@H]([C@@H](C)O)[C@@H](O)[C@H](O)[C@H]2O)cc1 [Example 98, 5-Hydroxymethyl-2-(4-methylbenzyl)phenyl 7-deoxy-D-glycero-β-D-gluco-heptapyranoside]	180 nM
C=Cc1cc(CO)cc(O[C@@H]2O[C@H]([C@@H](C)O)[C@@H](O)[C@H](O)[C@H]2O)c1Cc1ccc(OC)cc1 [Example 101, 5-Hydroxymethyl-2-(4-methoxybenzyl)-3-vinyl-phenyl 7-deoxy-D-glycero-β-D-gluco-heptopyranoside]	168 nM
